The values below come from patent US20260285853A1, “COMPOUNDS AND METHODS FOR MODULATING SPLICING” (REMIX THERAPEUTICS INC., priority 2023, published 2026).

Structures are written as SMILES. pIC50: −log10 of the molar value.

Common to all, as to type: cell-based
Experiment [1] has as its system HTT mRNA. The experiment can be described thus: Splicing RT-qPCR assay, canonical (CJ) and alternative (AJ) junction mRNA, K562 cells. The settings on record: Homo sapiens, K562.3 cells, 24 hours; for AC50: read-out: HTT AJ (AC50, increase in AJ mRNA); for pIC50: read-out: HTT CJ (IC50, decrease in CJ mRNA). A digest of the protocol: (§1)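 K562 cells were treated for 24 h at 37 °C with an 11-point 3-fold dilution series (top 10 uM final, DMSO ≤0.25%), then lysed for one-step RT-qPCR of canonical and alternative junctions. ΔΔCt was taken against GAPDH or GUSB and DMSO, converted to RQ by 2^(−ΔΔCt), then to % response.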
(In general: Quantitative PCR measures a nucleic acid by following its amplification.)

Experiment [2] concerns MYB mRNA. The description is as above. The following applies: Homo sapiens, K562.3 cells, 24 hours; for AC50: read-out: MYB AJ (AC50, increase in AJ mRNA); for pIC50: read-out: MYB CJ (IC50, decrease in CJ mRNA). A digest of the protocol:
as §1

Experiment [3] has as its system MYB mRNA. The experiment can be described thus: Splicing RT-qPCR assay (THP), Table 2A. The settings on record: Table 2A (THP); for AC50: AJ mRNA increase, read-out: MYB AJ (increase in alternative junction mRNA, AC50); for pIC50: CJ mRNA decrease, read-out: MYB CJ (decrease in canonical junction mRNA, IC50).
In experiment [4] the test system is HTT mRNA. Kind of experiment: Gene panel canonical junction qPCR assay, decrease in CJ mRNA, Table 3. The following applies: decrease in canonical junction (CJ) mRNA, gene panel qPCR, Table 3. A digest of the protocol: (§2)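 A673 (DMEM, 10% FBS, 15,000 cells/well) or K562 (IMDM, 10% FBS) cells treated 24 h at 37 °C with 11-point 3-fold dilutions, top 10 uM, DMSO ≤0.25%. Canonical exon-exon junction mRNA measured by RT-qPCR, normalized to GAPDH, GUSB or PPIA and DMSO (ΔΔCt); IC50 from 4-parameter logistic fit.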

Experiment [5] deals with MYB mRNA. The experiment is described as above. The settings on record: decrease in canonical junction (CJ) mRNA, gene panel qPCR, Table 3. An outline of the steps:
as §2

The next experiment relates to SMN2 mRNA. The description is as above. The settings on record: decrease in canonical junction (CJ) mRNA, gene panel qPCR, Table 3. A digest of the protocol: as §2
For experiment [6], the system named is SH-SY5Y (human neuroblastoma) cells. The experiment can be described thus: Cell viability, Cell Titer Glo 2.0 assay. The following applies: read-out: Viability SHSY5Y.3 GI50. A digest of the protocol: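 Toxicity screen in SH-SY5Y cells. Compounds were serially diluted in DMSO and then in medium, giving 0.1% DMSO final. Viability was read with CellTiter-Glo 2.0 after 72 h at 37 °C, 5% CO2, against medium-only blank wells.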

Turning to `COc1c(NC(=O)c2ccc(N3CCNCC3)c3cc[nH]c23)cn2cc(C)nc2c1F` [Compound 212, N-(8-fluoro-7-methoxy-2-methyl-imidazo-[1,2-a]pyridin-6-yl)-4-piperazin-1-yl-1H-indole-7-carboxamide], the AC50 in the experiment on HTT mRNA [1], in the experiment on MYB mRNA [2] and in the experiment on MYB mRNA [3] was above 10000 nM each time. Besides, the pIC50 was below 5.00 with HTT mRNA [1]; 5.00 to 6.00 in the experiment on MYB mRNA [2]; below 5.00 in the experiment on MYB mRNA [3]; below 5.00 in the experiment with HTT mRNA [4]; 5.00 to 6.00 with MYB mRNA [5]; 5.00 to 6.00 with SMN2 mRNA. Besides, the GI50 in experiment [6] was in the range of 1000 to 10000 nM.

Take `Cc1cn2cc(NC(=O)c3ccc(N4CCNCC4)c4cc[nH]c34)cc(F)c2n1` [Compound 213, N-(8-fluoro-2-methyl-imidazo[1,2-a]-pyridin-6-yl)-4-piperazin-1-yl-1H-indole-7-carboxamide]: the AC50 with HTT mRNA [1], with MYB mRNA [2] and in the experiment with MYB mRNA [3] was above 10000 nM throughout. For the same molecule, the pIC50 was 5.00 to 6.00 in the experiment with HTT mRNA [1]; below 5.00 with MYB mRNA [2]; 5.00 to 6.00 in the experiment on MYB mRNA [3]; 5.00 to 6.00 with HTT mRNA [4]; below 5.00 with MYB mRNA [5]; below 5.00 with SMN2 mRNA. The GI50 in experiment [6] was in the range of 1000 to 10000 nM.

With `Cc1cn2cc(NC(=O)c3ccc(N4CCNCC4)c4nonc34)cc(F)c2n1` [Compound 263, N-(8-fluoro-2-methyl-imidazo[1,2-a]pyridin-6-yl)-4-piperazin-1-yl-2,1,3-benzoxadiazole-7-carboxamide], the AC50 in the experiment on HTT mRNA [1] fell in the range of 1000 to 10000 nM; in the experiment on MYB mRNA [2] it was 100 to 1000 nM; in the experiment with MYB mRNA [3] it was 100 to 1000 nM. Further, the pIC50 with HTT mRNA [1] is 6.00 to 7.00; in the experiment with MYB mRNA [2], 6.00 to 7.00; in the experiment on MYB mRNA [3], 6.00 to 7.00; with HTT mRNA [4], 6.00 to 7.00; in the experiment with MYB mRNA [5], 6.00 to 7.00; in the experiment with SMN2 mRNA it was above 7.00. In experiment [6], the GI50 is 1000 to 10000 nM.

Turning to `Cc1cn2cc(C(=O)Nc3c(F)cc(N4CCNCC4)c4cn[nH]c34)cc(F)c2n1` [Compound 267], the AC50 in the experiment on HTT mRNA [1], in the experiment on MYB mRNA [2] and in the experiment with MYB mRNA [3] was above 10000 nM throughout. For the same molecule, the pIC50 in the experiment with HTT mRNA [1], in the experiment with MYB mRNA [2], in the experiment on MYB mRNA [3], with HTT mRNA [4], with MYB mRNA [5] and with SMN2 mRNA was below 5.00 in each case. Also, the GI50 in experiment [6] is above 10000 nM.

As to `COC1CC(N[C@H]2CCN(c3ccc(C(=O)Nc4cc(F)c5nc(C)cn5c4)c4nn(C)cc34)C2)C1` (stereo partly drawn) [Compound 268, N-(8-fluoro-2-methyl-imidazo[1,2-a]pyridin-6-yl)-4-[(3S)-3-[(3-methoxy-cyclobutyl)amino]pyrrolidin-1-yl]-2-methyl-indazole-7-carboxamide], the AC50 with HTT mRNA [1] is 1000 to 10000 nM; with MYB mRNA [2], 100 to 1000 nM; in the experiment with MYB mRNA [3] it was below 100 nM. For the same molecule, the pIC50 with HTT mRNA [1] is 6.00 to 7.00; in the experiment on MYB mRNA [2], above 7.00; in the experiment on MYB mRNA [3], above 7.00; in the experiment on HTT mRNA [4] it was 6.00 to 7.00; in the experiment with MYB mRNA [5], above 7.00; in the experiment with SMN2 mRNA, above 7.00. Besides, the GI50 in experiment [6] lay within 100 to 1000 nM.

What is called AC50 is the midpoint of the concentration-response curve, whichever way the signal moves. What is called pIC50 is the negative decadic logarithm of the IC50, by convention in mol/L. As a reminder, the GI50 is the concentration that inhibits growth by half.
